CC(=O)Nc1cccc(N)c1
solubility (mole fraction) (in DMF, 278.15 K): 0.029 | solubility (mole fraction) (in DMF, 283.15 K): 0.043 | solubility (mole fraction) (in DMF, 288.15 K): 0.061 | solubility (mole fraction) (in DMF, 293.15 K): 0.088 | solubility (mole fraction) (in DMF, 298.15 K): 0.124 | solubility (mole fraction) (in DMF, 303.15 K): 0.166 | solubility (mole fraction) (in DMF, 308.15 K): 0.22 | solubility (mole fraction) (in DMF, 313.15 K): 0.285 | solubility (mole fraction) (in DMF, 318.15 K): 0.358 | solubility (mole fraction) (in DMF, 323.15 K): 0.44 | solubility (mole fraction) (in THF, 278.15 K): 0.108 | solubility (mole fraction) (in THF, 283.15 K): 0.146 | solubility (mole fraction) (in THF, 288.15 K): 0.194 | solubility (mole fraction) (in THF, 293.15 K): 0.256 | solubility (mole fraction) (in THF, 298.15 K): 0.328 | solubility (mole fraction) (in THF, 303.15 K): 0.404 | solubility (mole fraction) (in THF, 308.15 K): 0.487 | solubility (mole fraction) (in THF, 313.15 K): 0.568 | solubility (mole fraction) (in THF, 318.15 K): 0.653 | solubility (mole fraction) (in THF, 323.15 K): 0.729 | solubility (mole fraction) (in acetone, 278.15 K): 0.05 | solubility (mole fraction) (in acetone, 283.15 K): 0.063 | solubility (mole fraction) (in acetone, 288.15 K): 0.081 | solubility (mole fraction) (in acetone, 293.15 K): 0.101 | solubility (mole fraction) (in acetone, 298.15 K): 0.125 | solubility (mole fraction) (in acetone, 303.15 K): 0.153 | solubility (mole fraction) (in acetone, 308.15 K): 0.186 | solubility (mole fraction) (in acetone, 313.15 K): 0.225 | solubility (mole fraction) (in acetone, 318.15 K): 0.27 | solubility (mole fraction) (in acetone, 323.15 K): 0.319 | solubility (mole fraction) (in acetonitrile, 278.15 K): 0.0283 | solubility (mole fraction) (in acetonitrile, 283.15 K): 0.0322 | solubility (mole fraction) (in acetonitrile, 288.15 K): 0.0382 | solubility (mole fraction) (in acetonitrile, 293.15 K): 0.0453 | solubility (mole fraction) (in acetonitrile, 298.15 K): 0.0535 | solubility (mole fraction) (in acetonitrile, 303.15 K): 0.0644 | solubility (mole fraction) (in acetonitrile, 308.15 K): 0.0752 | solubility (mole fraction) (in acetonitrile, 313.15 K): 0.0908 | solubility (mole fraction) (in acetonitrile, 318.15 K): 0.108 | solubility (mole fraction) (in acetonitrile, 323.15 K): 0.128 | solubility (mole fraction) (in ethyl acetate, 278.15 K): 0.033 | solubility (mole fraction) (in ethyl acetate, 283.15 K): 0.038 | solubility (mole fraction) (in ethyl acetate, 288.15 K): 0.043 | solubility (mole fraction) (in ethyl acetate, 293.15 K): 0.049 | solubility (mole fraction) (in ethyl acetate, 298.15 K): 0.055 | solubility (mole fraction) (in ethyl acetate, 303.15 K): 0.063 | solubility (mole fraction) (in ethyl acetate, 308.15 K): 0.074 | solubility (mole fraction) (in ethyl acetate, 313.15 K): 0.085 | solubility (mole fraction) (in ethyl acetate, 318.15 K): 0.099 | solubility (mole fraction) (in ethyl acetate, 323.15 K): 0.114 | solubility (mole fraction) (in isopropanol, 278.15 K): 0.021 | solubility (mole fraction) (in isopropanol, 283.15 K): 0.031 | solubility (mole fraction) (in isopropanol, 288.15 K): 0.048 | solubility (mole fraction) (in isopropanol, 293.15 K): 0.064 | solubility (mole fraction) (in isopropanol, 298.15 K): 0.084 | solubility (mole fraction) (in isopropanol, 303.15 K): 0.108 | solubility (mole fraction) (in isopropanol, 308.15 K): 0.138 | solubility (mole fraction) (in isopropanol, 313.15 K): 0.174 | solubility (mole fraction) (in isopropanol, 318.15 K): 0.218 | solubility (mole fraction) (in isopropanol, 323.15 K): 0.266 | solubility (mole fraction) (in methanol, 278.15 K): 0.049 | solubility (mole fraction) (in methanol, 283.15 K): 0.074 | solubility (mole fraction) (in methanol, 288.15 K): 0.105 | solubility (mole fraction) (in methanol, 293.15 K): 0.148 | solubility (mole fraction) (in methanol, 298.15 K): 0.207 | solubility (mole fraction) (in methanol, 303.15 K): 0.274 | solubility (mole fraction) (in methanol, 308.15 K): 0.351 | solubility (mole fraction) (in methanol, 313.15 K): 0.44 | solubility (mole fraction) (in methanol, 318.15 K): 0.53 | solubility (mole fraction) (in methanol, 323.15 K): 0.613 | solubility (mole fraction) (in water, 278.15 K): 0.025 | solubility (mole fraction) (in water, 283.15 K): 0.039 | solubility (mole fraction) (in water, 288.15 K): 0.06 | solubility (mole fraction) (in water, 293.15 K): 0.091 | solubility (mole fraction) (in water, 298.15 K): 0.133 | solubility (mole fraction) (in water, 303.15 K): 0.19 | solubility (mole fraction) (in water, 308.15 K): 0.262 | solubility (mole fraction) (in water, 313.15 K): 0.347 | solubility (mole fraction) (in water, 318.15 K): 0.439 | solubility (mole fraction) (in water, 323.15 K): 0.541

Source: BigSolDB 2.1
